Residues, ends and D or L forms follow the SMILES beside them. *: point of attachment. Cbz = O=C(OCc1ccccc1)*; CH2F = FC*
Assays:
[1] = test system: IGFIR-IC transfected 293T cells; assay: Inhibition of IGFIR-IC induced paraptosis in transfected 293T cells, LDH assay; format: cell-based, human; conditions: concentration not given
Procedure: Paraptosis was induced in 293T cells by expressing the intracellular domain of the insulin-like growth factor I receptor (IGFIR-IC) in these cells using transient transfection as described above.
(§1) Test compounds were added to IGFIR-IC transfected 293T cells at the time of transfection.
The TRAF2 dominant negative mutant contains a deletion of the amino terminal 271 amino acids of the protein. The ratio of IGFIR-IC:AIP1 and IGFIR-IC:TRAF2DN was 1:3. […] Antisense oligonucleotide constructs for JNK1 or JNK2 (50–100 nM) were transfected into 293T cells one day before transfection with the IGFIR-IC construct. For all inhibition assays, cell viability was measured using the LDH assay.

SP-induced paraptosis = assay: Inhibition of SP-induced paraptosis, cells not specified; format: cell-based; conditions: concentration not given
[2] = test system: rat neuronal primary cell cultures; assay: Induction of paraptosis in rat neuronal primary cell cultures, LDH cell death assay; format: cell-based
Procedure: Rat neuronal primary cell cultures were also used to assay for inducers and inhibitors of paraptosis. Briefly, primary striatal, cortical and hippocampal cultures were prepared from 17-day-old Sprague-Dawley rat embryos (B&K). The tissue was dissected, minced and trypsinized for five minutes using 0.25% trypsin (Cell Grow). After the addition of 10% horse serum (Life Technologies) to inhibit the trypsin, the cell suspension was triturated 15–20 times with a 10 ml syringe and centrifuged for five minutes at 800×g. The pellet was resuspended in MEM-PAK (UCSF Cell Culture facility), supplemented with 2.02 gm glucose, 2 mM GLUTAMAX™ (Life Technologies) and penicillin/streptomycin (100 U/ml). […]
Subsequently, compounds were added to 293T cells and/or rat neuronal primary cell culture cells in order to determine if the compounds could induce paraptosis. Cell death was assayed using the lactate dehydrogenase (LDH) assay, in which the relative amount of enzyme released from dying cells in the medium is measured by following the disappearance of nicotinamide adenine dinucleotide, reduced form (NADH) in the following reaction: pyruvate+NADH <−>NAD^++ lactate. […] NADH disappearance was assessed by kinetic photmetric readings at a 340 nm wavelength at 19 minute intervals over a period of 2 hours and 30 minutes.

[3] = test system: striatal, cortical, and hippocampal neurons; assay: SP-induced cell death in primary striatal, cortical and hippocampal neurons, trypan blue viability and staining; format: cell-based, rat; conditions: caspase inhibitors at 50 μM
Procedure: Rat neuronal primary cell cultures were also used to assay for inducers and inhibitors of paraptosis. Briefly, primary striatal, cortical and hippocampal cultures were prepared from 17-day-old Sprague-Dawley rat embryos (B&K). The tissue was dissected, minced and trypsinized for five minutes using 0.25% trypsin (Cell Grow). After the addition of 10% horse serum (Life Technologies) to inhibit the trypsin, the cell suspension was triturated 15–20 times with a 10 ml syringe and centrifuged for five minutes at 800×g. The pellet was resuspended in MEM-PAK (UCSF Cell Culture facility), supplemented with 2.02 gm glucose, 2 mM GLUTAMAX™ (Life Technologies) and penicillin/streptomycin (100 U/ml). The suspension was filtered through a […] cell strainer and the final culture medium contained 5% horse serum. Subsequently, 3-4×10^5 cells per Cm^2 were seeded onto either poly-D-lysine precoated 8-well chamber slides (Becton-Dickson Labware) or 96 well plates precoated with […] of poly-D-lysine (Sigma) in water. After 30 minutes of incubation time, unattached cells were removed together with the medium and replaced with glucose enriched MEM-PAK plus 5% horse serum. The cultures were then incubated at 37° C. in 95% air 5% carbon dioxide with 95% humidity. Cultures were used for experiments between day 1 and day 7 when glial contamination was at a minimum.
Primary neuronal cells were prepared as described in Example I. SP (SIGMA) at a concentration of 0.1 nM–100 μM was added 24–48 hrs after seeding, in the presence of 2.5% horse serum. When the cultures were maintained for more than 5 days, 10 μM cytosine arabinoside was added for 24 hours, beginning 3 days after plating the cells. Viability was quantified by trypan blue staining of the total cell population.
The following compounds were added at the same time as SP in the indicated experiments: 5 nM L-732, 138; 1 nM L-733,060; 1 μg/ml Actinomycin D or 1 μg/ml Cycloheximide. All of these compounds were obtained from SIGMA. The caspase inhibitors zVAD.fmk and BAF were added at 50 μM and obtained from Enzyme System Products, Livermore, Calif.
Either neuronal primary cultures or human embryonic kidney 293T cells were fixed with 4% paraformaldehyde and stained with 0.5 μg/ml DAPI (Molecular Probes) or Hoechst(SIGMA). […]
(§2) The protein kinase inhibitors were added 30 min before SP exposure at the following concentrations: 10 μM Rp-8-Br-cAMPS (adenosin 3′,5′-cyclic monophosphorothioate, 8-bromo-, Rp-isomer, sodium salt) which is a PKA inhibitor; 50 nM Calphostin C, which is a PKC inhibitor; 10 μM PD 98059 which is a MAPKK (MEK) inhibitor. These compounds were obtained from Calbiochem. Viability was quantified by trypan blue staining of the total cell population.

[4] = test system: paraptosis induced by caspase 7, caspase 8 or caspase 9; assay: Inhibition of paraptosis induced by caspases; format: cell-based
Procedure: as §1

[5] = test system: 293T cells transfected with NK1R; assay: SP-induced, NK1R-mediated cell death in 293T cells transfected with NK1R, trypan blue and staining; format: cell-based, human; conditions: caspase inhibitors at 50 μM
Procedure: (§3) Human embryonic kidney 293T cells were grown as described in Example I. Transient transfection was performed using Superfect (Qiagen) as described by the manufacturer. Briefly, 2×10^5 cells/well were seeded into 35 mm wells 16 hr prior to transfection. Superfect:DNA complexes were added at a 5 μl:2 μg ratio for 3 hr; then the medium was replaced and after 24 hr SP was added. At 24–48 hr after addition of SP cell death was quantified as follows: the media containing floating cells were collected and centrifuged 10 min at 2000×g, the pellet was resuspended in PBS/trypan blue and the cells were counted using a hematocytometer. When other compounds were used, they were added at the same time as SP: zVAD.fmk or BAF was added at 50 μM and obtained from Enzyme System Products, Livermore, Calif.
Briefly, the method entailed cloning the full-length (1.2 kb) NK1R cDNA (Genbank Accession No. M31477) by RT-PCR from adult rat hippocampal RNA into the XbaI/EcoRI sites of the vector pcDNA3.1 (Invitrogen), using the following oligonucleotides: forward 5′[…] 3′ (SEQ ID NO:2); reverse 5′[…] 3′ (SEQ ID NO:3).
Cells were stained according to the manufacturer's instructions (Clontech). Briefly, cellswere washed with binding buffer and incubated with FITC-Annexin-V or EGFPAnnexin-V for 5–10 min and fixed with 4% paraformaldehyde.
Cells were fixed 10 min with 4% paraformaldehyde and stained according to the manufacturer's instructions (Promega).
as §2

[6] = test system: caspase-8 transfected cells; assay: Apoptosis induced by over-expression of caspase-8 in 293T cells; format: cell-based, human; conditions: caspase inhibitors at 50 μM
Procedure: as §3

paraptosis = conditions: cited from earlier work
293T cells = assay: Induction of paraptosis in 293T cells, LDH cell death assay; format: cell-based, human; conditions: 293T cells
Procedure: Human embryonic kidney 293T cell line cells were used to assay for inducers and inhibitors of paraptosis. These cells were cultured in high glucose DMEM (Life Technologies) supplemented with 10% FBS (Sigma) and 1% penicillin/streptomycin (Life Technologies). The cultures were incubated at 37° C. in 95% air 5% carbon dioxide with 95% humidity.
Subsequently, compounds were added to 293T cells and/or rat neuronal primary cell culture cells in order to determine if the compounds could induce paraptosis. Cell death was assayed using the lactate dehydrogenase (LDH) assay, in which the relative amount of enzyme released from dying cells in the medium is measured by following the disappearance of nicotinamide adenine dinucleotide, reduced form (NADH) in the following reaction: pyruvate+NADH <−>NAD^++ lactate. Briefly, 50 μl of culture medium for either 293T cells or 100 μl of culture medium for neuronal primary culture were dispensed in a 96 well plate to which 100 μl of a solution consisting of 5 mg of NADH dissolved in 20 ml of PBS and 0.5 ml of 100 mM NaPyruvate. NADH disappearance was assessed by kinetic photmetric readings at a 340 nm wavelength at 19 minute intervals over a period of 2 hours and 30 minutes.
Constructs of pcDNA3 containing procaspase-7 or procaspase-8 were transiently transfected into 293T cells using Lipofect-Amine (GIBCO-BRL) according to the manufacturer's instructions. Briefly, 1×10^6 293T cells were seeded in 6 cm dishes, and transfected the next day using a ratio of DNA:Lipofect-Amine of 1 μg:5 μl. Transfection efficiency was 60–80% for 293T cells, as determined by X-gal staining after transfection of a β-galactosidase construct.

Compound: N#CC(=C(/N)Sc1ccccc1N)/C(C#N)=C(/N)Sc1ccccc1N [UO126]
- effect on IGFIR-induced paraptosis [1]: can be inhibited
- effect on SP-induced paraptosis (SP-induced paraptosis): can be inhibited

Compound: N[C@@H](CCC(=O)O)C(=O)O [Glutamic Acid, (S)-2-aminopentanedioic acid]
- concentration at which found to induce paraptosis [2]: 50 to 500 µM

Compound: COC(=O)C[C@H](NC(=O)[C@H](C)NC(=O)[C@@H](NC(=O)OCc1ccccc1)C(C)C)C(=O)CF [zVAD.fmk] (Cbz-Val-Ala-Asp(OMe)-CH2F)
- effect on SP-induced cell death in neurons [3]: not inhibited
- inhibition of paraptosis induction by caspase-7 and caspase-8 [4]: subject to inhibition
- effect on NK1R-mediated cell death in 293T cells [5]: lack of effect
- effect on apoptosis induced by over-expression of caspase-8 [6]: completely abolished
- effect of caspase inhibitors on paraptosis (paraptosis): lack of effect

Compound: CCCCCCCCCCCCC/C=C/[C@@H](O)[C@H](CO)NC(C)=O [C2 ceramide, N-Acetyl-D-sphingosine]
- concentration at which found to induce paraptosis (293T cells): 15 to 100 µM
- concentration at which found to induce paraptosis [2]: 15 to 100 µM

— US6994981B2, “Modulators of paraptosis and related methods” (The Buck Institute, priority 2002, dated 2006)
